PubChem BioAssay (NCI)
Where “and” joins values, the source holds several entries; their conditions need not be identical. Identical values can stand only once.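 1) Cells in 96-well plates. 2) Compound, 48 h, 5 concentrations. 3) Linear interpolation between surrounding doses. 4) Unreached endpoint = highest concentration. GI50 = concentration required for 50% inhibition of growth. TGI: concentration producing complete growth inhibition.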

System: MDA-MB-468 breast
Assay: DTP human tumour cell line panel, 48 h

Row | Compound | GI50 | TGI
1 | CC(=O)Nc1ccc(Sc2ccc([N+](=O)[O-])o2)cc1 | 0.933 µM | 2.81 µM
2 | COc1ccc(Nn2c(SCC(=O)Nc3nc(-c4ccc(Cl)cc4)cs3)nc(C)c2C)cc1 | 0.574 µM | 7.73 µM
3 | CS(=O)CCCCCN=C=S (centres undefined) | 2.68 µM | 9.94 µM
4 | COc1cccc(C2C(C#N)=C(N)Oc3cc(N)ccc32)c1 (centres undefined) | 0.282 µM | 0.987 µM
5 | CCOc1ccc([C@@H]2[C@@H](Oc3ccccc3)C(=O)N2c2cc(OC)c(OC)c(OC)c2)cc1 | 0.0459 µM | > 100 µM
6 | NC(=NCCCOc1ccc(Cl)cc1)Nc1ccc(Cl)cc1 | 1.71 µM | 3.78 µM
7 | CN1CCCNc2c(c(=O)c2=O)NCCCN(C)CCCNc2c(c(=O)c2=O)NCCCN(C)CCCNc2c(c(=O)c2=O)NCCCN(C)CCCNc2c(c(=O)c2=O)NCCCN(C)CCCNc2c(c(=O)c2=O)NCCCN(C)CCCNc2c(c(=O)c2=O)NCCCN(C)CCCNc2c(c(=O)c2=O)NCCC1 | 2 µM | 12 µM
8 | O=[N+]([O-])c1ccc(-c2nc(-c3ccccc3)c(-c3ccccc3)n2-c2ccccc2)cc1 | 3.77 µM | 12.7 µM
9 | CC(=O)N1CC(Nc2ccc(OC(F)(F)F)cc2)=CC1=O | 0.662 µM | 4.74 µM
10 | CCN(CC)CCCNc1cccc2c(SCc3ccccc3)ccnc12 | 1.88 µM | 3.43 µM
11 | CN(C)c1ccc(/C=C(/NC(=O)c2ccccc2)c2nc3ccc(Cl)cc3[nH]2)cc1 | 20.5 µM | 70.5 µM
12 | Cc1ccc(N2CCN(C3=C(Cl)C(=O)c4ncccc4C3=O)CC2)cc1 | 1.49 µM | 3.04 µM
13 | COc1ccc(C(=O)c2ccc(OC)c(OC)c2OC)cc1 | 0.696 µM | 9.94 µM
14 | Cc1nc2sccn2c(=O)c1CCN1CCC(=C(c2ccc(F)cc2)c2ccc(F)cc2)CC1 | 5.05 µM | 19 µM
15 | COC(=O)c1ccc2c(c1)nc(-c1cc3ccccc3[nH]c1=O)n2-c1cc(C(C)(C)C)[nH]n1 | 13.7 µM | > 100 µM
16 | CC(C)(C)c1nc2c(o1)C(=O)c1ccccc1C2=O | 0.184 µM | 0.564 µM
17 | NCCCNc1nc2ccccc2c2c(=O)c3cc(C(F)(F)F)ccc3sc12 | 1.53 µM | 2.99 µM
18 | C=C(C)[C@@H]1CC[C@]2(C)[C@H](C(=O)C=C3[C@@H]4C[C@](C)(C(=O)N5CCN(C)CC5)CC[C@]4(C)CC[C@]32C)[C@@]1(C)CCC#N | 5.92 µM | 13.2 µM
19 | CCCCCCCC/C=C/CCCCCCCCC1=NCCN1CCO | 10.3 µM | 26.6 µM

Row | Compound | GI50 | TGI
20 | CCC(C)n1cc(C)c2c(C(=O)NCc3c(C)cc(C)[nH]c3=O)cc(Br)cc21 (centres undefined) | 22.8 µM | > 100 µM
21 | CCCCCCCC/C=C/CCCCCCCC1=NCC[N+]1(CCO)CCO | 1.78 µM | 4.56 µM
22 | CCN(CC)c1cc(/C=C/c2ccc(OC)c(OC)c2)nc2cc(F)c(F)cc12 | 2.49 µM | 10.3 µM
23 | C=C1C[C@](OC)([C@H](O)C(=O)N[C@@H](OC)[C@@H]2C[C@@H](O)C(C)(C)[C@@H](C[C@@H](COC)OC)O2)O[C@H](C)[C@@H]1C | 0.000941 µM | 0.00348 µM
24 | NC(CSC(c1ccccc1)(c1ccccc1)c1ccc(Cl)cc1)C(=O)O (centres undefined) | 0.0819 µM | 4.18 µM
25 | CC1/C=C/C=C/C=C/C=C/C=C/C=C/C=C/C(O[C@@H]2O[C@H](C)[C@H](O)[C@@H](O)[C@@H]2N)CC(O)C(C(=O)O)C(O)CC(=O)CC(O)CC(O)CC(O)CC(=O)CCCC(=O)CC(=O)OC1C(C)CC(C)C(O)CC(=O)c1ccc(N)cc1 (some centres undefined) | 0.0492 µM and 0.223 µM | 0.0989 µM and 0.723 µM
26 | CC(C)[C@@]12C[C@@H](OC(=O)[C@H]3CO3)[C@@](C)(O1)[C@@H]1CC[C@@H](C)[C@H]1[C@@H]2OC(=O)/C=C/c1ccccc1 | 13.9 µM | 30.9 µM
27 | COc1cc(NCCCCN=C(N)NC(N)=NC(C)C)c2ncccc2c1 | 0.106 µM | 0.435 µM
28 | Cc1cccc(Oc2nccc(-c3c(-c4ccc(F)cc4)ncn3C3CCNCC3)n2)c1C | 2.95 µM | 6.46 µM
29 | COc1ccccc1-n1c(-c2cc(O)ccc2C)cn2c3c(=O)[nH]c(=O)n(C)c3nc12 | 15.6 µM | > 100 µM
30 | CCCCCCCCCCCCCCCCCC1=NCCN1CS(=O)(=O)O | 16.1 µM | 33.8 µM
31 | ClC1=C(Cl)C(Cl)=C(Cl)C1=C/C=C/c1ccccc1 | 0.186 µM | 0.433 µM
32 | COc1cc(/C=C/c2cc(/C=C/c3ccc(O)c(OC)c3)n(-c3c(C)cccc3C)c(=O)n2)ccc1O | 0.835 µM | 3.61 µM
33 | Cc1cc2cc3cc(C)c(N(C)C)cc3nc2cc1N(C)C | 0.8 µM | 9.01 µM
34 | N#Cc1c(-c2ccc(Cl)cc2)n(O)c2ccccc12 | 1.63 µM | 4.71 µM
35 | COc1cc(C)c(-c2ccc(=O)c(OC)cc2C)c(OC)c1OC | > 100 µM and 14 µM | > 100 µM
36 | CC(C)CCOc1ccc(-c2n[nH]c(C(F)(F)F)c2-c2cncc(C#N)c2)c(O)c1 | 1.01 µM | 4.83 µM
37 | CC(=O)c1ccc(NC(=O)CSc2nnc(-c3cc(-c4ccc(C)cc4)nc4ccccc34)o2)cc1 | 3.54 µM | > 100 µM
